Data from patent publication US20230295201A1 (Gilead Sciences, Inc., priority 2020, published 2023).
Like-named read-outs stand apart in the source and are kept apart here.

Key:
Assay type in all cases: cell-based
[1] = tested on: RSV strain A2; assay: RSV HEp-2 EC50 (infectious cytopathic cell protection assay); details: read-out: RSV HEp-2 EC50
Procedure, shortened: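 Percent inhibition of RSV-induced cytopathic effect came from remaining cell viability (CellTiter-Glo luminescence) after 4 days at 37° C. Compounds in 3-fold serial dilutions were exposed to an infectious mix of titered A2 virus and HEp-2 cells at 50,000/ml, with 0% and 100% inhibition control standards.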

[2] = tested on: DENV2 replicon; assay: DENV-2 Huh-7 Rep EC50 (replicon luminescence); details: read-out: DENV-2 Huh-7 Rep EC50
Procedure, shortened: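 EC50 derived from luminescence dose-response, normalised to DMSO-only 0% inhibition wells, after 1.5 h with EnduRen substrate. Compounds were first exposed for 48 h at 37° C to DENV2 replicon Huh-7 cells (5,000/well).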

[3] = tested on: RSV A2; assay: RSV NHBE EC50 (RSV A2 antiviral assay in normal human bronchial epithelial cells); details: read-out: RSV NHBE EC50
[4] = tested on: HRV16; assay: HRV16 HELA EC50 (cytopathic effect in H1-HeLa cells)
Procedure, shortened: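 Read-out is luminescent cell viability (CellTiter-Glo) after 96 h of infection at 33 °C, scaled between uninfected and infected-untreated wells. Before infection with titrated virus, compounds went onto H1-HeLa cells as triplicate 3-fold dilution series.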

[5] = human respiratory syncytial virus, HEp-2, 96 h, HEp-2 cells, RSV A2, 4 days
[6] = Dengue virus, DENV2, Huh-7, 48 h, Huh-7 replicon cells, 48 hours
[7] = human respiratory syncytial virus, NHBE, 96 h, NHBE cells, RSV A2, 4 days
[8] = 96 h, H1-HeLa cells, 33° C., read-out: HRV16 HELA EC50
[9] = human respiratory syncytial virus, 96 h, HEp-2 cells, RSV A2, 4 days
[10] = Dengue virus, DENV2, Huh-7, 48 h
[11] = human respiratory syncytial virus, 96 h, NHBE cells, RSV A2, 4 days
[12] = H1-HeLa cells, 96 h, 33° C.; read-out: HRV16 HELA EC50

Compound	EC50 [1, 5] [µM]	EC50 [2, 6] [µM]	EC50 [3, 7] [µM]	EC50 [4, 8] [µM]	EC50 [1, 9] [µM]	EC50 [2, 10] [µM]	EC50 [3, 11] [µM]	EC50 [4, 12] [µM]	other results
CCCCCCCCCCCCCCCCOCCCOC(=O)[C@H](C)NP(=O)(OC[C@@]1(C#N)O[C@@H](c2ccc3c(N)ncnn23)[C@H](O)[C@@H]1O)Oc1ccccc1 (stereo partly drawn) [Example 198, 3-(hexadecyloxy)propyl ((((2R,3S,4R,5S)-5-(4-aminopyrrolo[2,1-f][1,2,4]triazin-7-yl)-2-cyano-3,4-dihydroxytetrahydrofuran-2-yl)methoxy)(phenoxy)phosphoryl)alaninate]	0.618	39.1	0.037	0.548	–	–	–	–	–
CCCCCCCCCCCCCCCCOC(=O)[C@H](C)NP(=O)(OC[C@@]1(C#N)O[C@@H](c2ccc3c(N)ncnn23)[C@H](O)[C@@H]1O)Oc1ccccc1 (stereo partly drawn) [Example 199, hexadecyl ((((2R,3S,4R,5S)-5-(4-aminopyrrolo[2,1-f][1,2,4]triazin-7-yl)-2-cyano-3,4-dihydroxytetrahydrofuran-2-yl)methoxy)(phenoxy)phosphoryl)-L-alaninate]	1.12	37.8	0.033	0.738	–	–	–	–	–
CCC(CC)COC(=O)[C@H](C)NP(=O)(N[C@@H](C)C(=O)OCC(C)(C)C)OC[C@@]1(C#N)O[C@@H](c2ccc3c(N)ncnn23)[C@H](O)[C@@H]1O (stereo partly drawn) [Example 200, 2-ethylbutyl ((((2R,3S,4R,5S)-5-(4-aminopyrrolo[2,1-f][1,2,4]triazin-7-yl)-2-cyano-3,4-dihydroxytetrahydrofuran-2-yl)methoxy)(((S)-1-(neopentyloxy)-1-oxopropan-2-yl)amino)phosphoryl)-L-alaninate]	–	–	–	–	1.4	> 50	0.125	5.68	–
C[C@H](NP(=O)(OCC(F)(F)F)OC[C@@]1(C#N)O[C@@H](c2ccc3c(N)ncnn23)[C@H](O)[C@@H]1O)C(=O)OC1CCCCC1 (stereo partly drawn) [Example 201, cyclohexyl ((((2R,3S,4R,5S)-5-(4-aminopyrrolo[2,1-f][1,2,4]triazin-7-yl)-2-cyano-3,4-dihydroxytetrahydrofuran-2-yl)methoxy)(2,2,2-trifluoroethoxy)phosphoryl)-L-alaninate]	–	–	–	–	2.52	> 50	3.1	10.3	–
C[C@H](NP(=O)(OC[C@@]1(C#N)O[C@@H](c2ccc3c(N)ncnn23)[C@H](O)[C@@H]1O)Oc1ccccc1)C(=O)OC1CCCN(CC(F)(F)F)CC1 (stereo partly drawn) [Example 204, 1-(2,2,2-trifluoroethyl)azepan-4-yl ((((2R,3S,4R,5S)-5-(4-aminopyrrolo[2,1-f][1,2,4]triazin-7-yl)-2-cyano-3,4-dihydroxytetrahydrofuran-2-yl)methoxy)(phenoxy)phosphoryl)alaninate]	0.463	27.5	0.628	1.38	–	–	–	–	–
CC(C)(C)C(=O)OCCNP(=O)(NCCOC(=O)C(C)(C)C)OC[C@@]1(C#N)O[C@@H](c2ccc3c(N)ncnn23)[C@H](O)[C@@H]1O [Example 208]	> 32.8	–	> 4.22	> 50	–	> 50	–	–	–
CCOC(=O)c1ccccc1OP(=O)(OC[C@@]1(C#N)O[C@@H](c2ccc3c(N)ncnn23)[C@H](O)[C@@H]1O)Oc1ccccc1C(=O)OCC [Example 209, ((2R,3S,4R,5S)-5-(4-aminopyrrolo[2,1-f][1,2,4]triazin-7-yl)-2-cyano-3,4-dihydroxytetrahydrofuran-2-yl)methyl bis-2-ethylbenzoate phosphate]	–	–	–	–	–	> 50	–	–	EC50 ([1]; human respiratory syncytial virus, HEp-2, 96 h): 1.46 µM; EC50 ([3]; human respiratory syncytial virus, NHBE, 96 h): > 5 µM; EC50 ([4]; 96 h, read-out: HRV16 HELA EC50): 16.7 µM
C[C@H](NP(=O)(OC[C@@]1(C#N)O[C@@H](c2ccc3c(N)ncnn23)[C@H](O)[C@@H]1O)Oc1ccccc1)C(=O)OC[C@H]1CC[C@H](N)CC1 (stereo partly drawn) [Example 210, ((1r,4S)-4-aminocyclohexyl)methyl ((((2R,3S,4R,5S)-5-(4-aminopyrrolo[2,1-f][1,2,4]triazin-7-yl)-2-cyano-3,4-dihydroxytetrahydrofuran-2-yl)methoxy)(phenoxy)phosphoryl)-L-alaninate]	1.78	> 50	3.02	27.9	–	–	–	–	–
CCCCCCCC(=O)Nc1ncnn2c([C@@H]3O[C@](C#N)(CO[P@@](=O)(N[C@@H](C)C(=O)OC4CCCCC4)Oc4ccccc4)[C@@H](O)[C@H]3O)ccc12 [Example 212, Cyclohexyl ((S)-(((2R,3S,4R,5S)-2-cyano-3,4-dihydroxy-5-(4-octanamidopyrrolo[2,1-f][1,2,4]triazin-7-yl)tetrahydrofuran-2-yl)methoxy)(phenoxy)phosphoryl)-L-alaninate]	0.133	9.77	> 5	0.67	–	–	–	–	–
C[C@H](NP(=O)(N[C@@H](C)C(=O)OCC1CC1)OC[C@@]1(C#N)O[C@@H](c2ccc3c(N)ncnn23)[C@H](O)[C@@H]1O)C(=O)OCC1CC1 [Example 214, ((2R,3S,4R,5S)-5-(4-aminopyrrolo[2,1-f][1,2,4]triazin-7-yl)-2-cyano-3,4-dihydroxytetrahydrofuran-2-yl)methyl bis-cyclopropylmethyl L-alaninate phosphate]	–	–	–	–	2.94	> 50	0.551	25.8	–
CCCCCOC(=O)C[C@H](NP(=O)(OC[C@@]1(C#N)O[C@@H](c2ccc3c(N)ncnn23)[C@H](O)[C@@H]1O)Oc1ccccc1)C(=O)OCCCCC (stereo partly drawn) [Example 215, Dipentyl ((((2R,3S,4R,5S)-5-(4-aminopyrrolo[2,1-f][1,2,4]triazin-7-yl)-2-cyano-3,4-dihydroxytetrahydrofuran-2-yl)methoxy)(phenoxy)phosphoryl)-L-aspartate]	1.1	44.3	> 3	3.39	–	–	–	–	–
CCCCCOC(=O)C[C@H](N[P@@](=O)(OC[C@@]1(C#N)O[C@@H](c2ccc3c(N)ncnn23)[C@H](O)[C@@H]1O)Oc1ccccc1)C(=O)OCCCCC [Example 216]	–	–	–	–	–	–	–	32.8	EC50 ([1]; HEp-2 cells, RSV A2, 4 days): 4.23 µM; EC50 ([2]; Huh-7 replicon cells, 48 hours): 33 µM; EC50 ([3]; NHBE cells, RSV A2, 4 days): > 4.39 µM
CCCCCOC(=O)C[C@H](N[P@](=O)(OC[C@@]1(C#N)O[C@@H](c2ccc3c(N)ncnn23)[C@H](O)[C@@H]1O)Oc1ccccc1)C(=O)OCCCCC [Example 217]	–	–	–	–	–	–	–	4.66	EC50 ([1]; HEp-2 cells, RSV A2, 4 days): 1.01 µM; EC50 ([2]; Huh-7 replicon cells, 48 hours): 38 µM; EC50 ([3]; NHBE cells, RSV A2, 4 days): > 3.51 µM
CCCCOC(=O)[C@H](C)NP(=O)(N[C@@H](C)C(=O)OCCCC)OC[C@@]1(C#N)O[C@@H](c2ccc3c(N)ncnn23)[C@H](O)[C@@H]1O [Example 218]	–	–	–	–	1.16	> 50	0.28	11.3	–
C[C@H](NP(=O)(N[C@@H](C)C(=O)OCc1ccccc1)OC[C@@]1(C#N)O[C@@H](c2ccc3c(N)ncnn23)[C@H](O)[C@@H]1O)C(=O)OCc1ccccc1 [Example 219]	–	–	–	–	1.76	> 50	0.178	6.04	–
CCC(CC)COC(=O)[C@H](CC)NP(=O)(N[C@@H](CC)C(=O)OCC(CC)CC)OC[C@@]1(C#N)O[C@@H](c2ccc3c(N)ncnn23)[C@H](O)[C@@H]1O [Example 220]	–	–	–	–	4.26	29	0.34	10.6	–
CCCCOC(=O)CC[C@H](NP(=O)(OC[C@@]1(C#N)O[C@@H](c2ccc3c(N)ncnn23)[C@H](O)[C@@H]1O)Oc1ccccc1)C(=O)OC1CCCCC1 (stereo partly drawn) [Example 229, 5-butyl 1-cyclohexyl ((((2R,3S,4R,5S)-5-(4-aminopyrrolo [2,1-f][1,2,4]triazin-7-yl)-2-cyano-3,4-dihydroxytetrahydrofuran-2-yl)methoxy)(phenoxy)phosphoryl)-L-glutamate]	> 13.3	31.4	> 5	> 40.2	–	–	–	–	–
CCCC(=O)Nc1ncnn2c([C@@H]3O[C@](C#N)(CO[P@@](=O)(N[C@@H](C)C(=O)OC4CCCCC4)Oc4ccccc4)[C@@H](O)[C@H]3O)ccc12 [Example 231, Cyclohexyl ((S)-(((2R,3S,4R,5S)-5-(4-butyramidopyrrolo[2,1-f][1,2,4]triazin-7-yl)-2-cyano-3,4-dihydroxytetrahydrofuran-2-yl)methoxy)(phenoxy)phosphoryl)-L-alaninate]	0.152	14.7	0.19	1.2	–	–	–	–	–
CC(C)OC(=O)[C@H](C)N[P@](=O)(OC[C@@]1(C#N)O[C@@H](c2ccc3c(NC(=O)C(C)C)ncnn23)[C@H](O)[C@@H]1O)Oc1ccccc1 [Example 234, isopropyl ((S)-(((2R,3S,4R,5S)-2-cyano-3,4-dihydroxy-5-(4-isobutyramidopyrrolo[2,1-f][1,2,4]triazin-7-yl)tetrahydrofuran-2-yl)methoxy)(phenoxy)phosphoryl)-L-alaninate]	0.696	36.4	2.41	6.87	–	–	–	–	–
